From US4818761A, “2-(4-pyridylaminomethyl)-benzimidazole derivatives having antiviral activity” (priority 1986, dated 1989)
In brackets after ≈: the same amount, converted by molar mass.

How the values were obtained:
[1] = in vitro; details: monkey, llc-mk2 cells
[2] = tested on: enterovirus type 70 (EV70); test: Inhibition of EV70 cytopathogenic effect (CPE) in LLC-MK2 cells; format: cell-based; details: for IC50: Enterovirus D, * Virus CPE inhibition assay, LLC-MK2 cells, 33° C.
[3] = tested on: coxsackievirus type B4 (CB4); test: Inhibition of CB4 cytopathogenic effect (CPE) in LLC-MK2 cells; format: cell-based; details: for IC50: Coxsackievirus, * Virus CPE inhibition assay, LLC-MK2 cells, 37° C.; for CI CB4 (C)/(A): CI = CD50 (LLC-MK2)/IC50 (virus CPE)
[4] = tested on: rhinovirus type 14 (HRV14); test: Inhibition of HRV14 plaque formation in HeLa cells; format: cell-based; details: Enterovirus, HRV14; plaque reduction, HeLa cells, 33° C.
[5] = tested on: coxsackievirus type B4 (CB4); test: Inhibition of CB4 plaque formation in LLC-MK2 cells; format: cell-based; details: for CI CB4 (C)/(A): CI = CD50 (LLC-MK2)/IC50 (plaque); for IC50: Coxsackievirus, plaque reduction, LLC-MK2 cells, 37° C.
[6] = tested on: poliovirus type 2 (Polio2); test: microbe, parasite or virus in culture; format: cell-based; details: for IC50: Enterovirus C, LLC-MK2, read-out: IC50 Polio2; for CI Polio2 (C)/(A): CI = CD50 (LLC-MK2)/IC50 (plaque)
[7] = tested on: enterovirus type 70 (EV70); test: Inhibition of EV70 plaque formation in LLC-MK2 cells; format: cell-based; details: for CI EV70 (C)/(A): CI = CD50 (LLC-MK2)/IC50 (plaque); for IC50: Enterovirus D, plaque reduction, LLC-MK2 cells, 33° C.

| SMILES | CC50 [1] [µg/mL] | IC50 [2] [µg/mL] | IC50 [3] [µg/mL] | CI CB4 (C)/(A) [3] | IC50 [4] [µg/mL] | CI CB4 (C)/(A) [5] | IC50 [5] [µg/mL] | IC50 [6] [µg/mL] | CI EV70 (C)/(A) [7] | IC50 [7] [µg/mL] | CI Polio2 (C)/(A) [6] | CI EV70 (C)/(A) ([2]; CI = CD50 (LLC-MK2)/IC50 (virus CPE)) |
| --- | --- | --- | --- | --- | --- | --- | --- | --- | --- | --- | --- | --- |
| Cc1ccc2c(c1)nc(CNc1ccncc1)n2C [XXXVI] | > 100 | > 100 | – | – | – | – | – | – | – | – | – | – |
| Cc1ccccc1-n1c(CNc2ccncc2)nc2ccccc21 [LXII] | > 100 | > 100 | > 100 | – | – | – | – | – | – | – | – | – |
| CC(C)(C)c1ccc2[nH]c(CNc3ccncc3)nc2c1 [VIII] | > 100 | > 100 | – | – | – | – | – | – | – | – | – | – |
| c1ccc(Cn2c(CNc3ccncc3)nc3ccccc32)cc1 [XXIV, 1-benzyl-2-(4-pyridylaminomethyl)benzimidazole] | > 2000 | > 100 | 56.2 (≈ 179 µM) | > 36 | > 50 | – | – | – | – | – | – | – |
| Cn1c(CNc2ccncc2)nc2ccc(Cl)cc21 [XXXIX] | > 100 | – | – | – | > 50 | > 1 | 82 (≈ 301 µM) | > 100 | > 2 | 50 (≈ 183 µM) | – | – |
| CCn1c(CNc2ccncc2)nc2ccccc21 [XI] | 5660 (≈ 22400 µM) | > 100 | – | – | – | 1,768 | 3.2 (≈ 12.7 µM) | – | – | – | – | – |
| CCc1cc2nc(CNc3ccncc3)[nH]c2cc1Cl [XXXII] | 88.4 (≈ 308 µM) | – | – | – | < 1 | 7 | 12.5 (≈ 43.6 µM) | 35 (≈ 122 µM) | 134 | 0.66 (≈ 2.3 µM) | 3 | – |
| c1ccc2c(c1)nc(CNc1ccncc1)n2C1CCCC1 [XVII] | 1410 (≈ 4840 µM) | > 100 | 5.6 (≈ 19.2 µM) | > 253 | > 50 | – | – | – | – | – | – | – |
| COc1ccccc1-n1c(CNc2ccncc2)nc2ccccc21 [LXVII] | – | > 100 | > 100 | – | – | – | – | – | – | – | – | – |
| Cn1c(CNc2ccncc2)nc2ccccc21 [X] | > 1000 | – | – | – | > 100 | > 31 | 32 (≈ 134 µM) | 170 (≈ 713 µM) | > 30 | 33 (≈ 138 µM) | > 6 | – |
| Clc1ccc2c(c1)nc(CNc1ccncc1)n2-c1ccccc1 [XLVI] | > 100 | 13.2 (≈ 39.4 µM) | 1.8 (≈ 5.38 µM) | > 56 | – | – | – | – | – | – | – | > 8 |
